Experimental data as given in US20030186289A1, “Model cell systems for screening of anti-hypertrophic therapeutics” (Myogen, Inc., priority 2002, published 2003).

How the values were obtained:
Format in all cases: cell-based, rat
[1] = tested on: hypertrophic promoter activity (ANF, NFAT, MEF2, aSkAct, Myb); assay: hypertrophic promoter-luciferase constructs in H9C2 cells, agonist dose-response survey; conditions: dose-response survey of agonists
Procedure: FIG. 5—H9C2 promoter activity is unresponsive to the adrenergic agonists isoproterenol, norepinephrine and forskolin. H9 cells were transfected with promoter-luciferase contructs as shown and as described in materials and methods. Transfected cells were treated with hypertrophic agonists as shown. Luciferase units were measured and plotted as fraction of untreated control vs concentration of agonist used. Symbols ANF, NFAT, MEF2, aSkAct, and Myb are used as in FIG. 3.
Plasmid constructs used. Gal4 DNA-binding domain constructs were generated by cloning cDNAs encoding constitutively active murine calcineurin (residues 1-398) and full length human MEF-2 into the pBIND expression vector (Promega, Inc.). VP16 fusion constructs were created by cloning full length human MCIP1 and HDAC5 cDNAs into the pACT expression vector (Promega, Inc.). […] Promoter reporter constructs were generated by cloning the promoter regions of ANF, α-skeletal actin, IL-2 (with multiple NFAT binding sites) and myoglobin genes upstream of a promoter-less firefly luciferase open reading frame (pGL3 plasmid, Promega, Inc.). […]
Luciferase measurement. […] Briefly, cells were washed in serum- and phenol red-free medium, then lysed in the presence of luciferase substrate to produce a long half-life “glow” luminescence. Relative light intensity was quantitated on a Fusion Universal Microplate Analyzer (Packard).

MEF-2 reporter = assay: 3×MEF2 promoter-luciferase reporter in H9C2 cells; conditions: for MEF-2 reporter expression: agonist 100 μM
Excerpt: Plasmid constructs used. Gal4 DNA-binding domain constructs were generated by cloning cDNAs encoding constitutively active murine calcineurin (residues 1-398) and full length human MEF-2 into the pBIND expression vector (Promega, Inc.). VP16 fusion constructs were created by cloning full length human MCIP1 and HDAC5 cDNAs into the pACT expression vector (Promega, Inc.). In assays, Gal4 and VP16 fusion constructs were cotransfected with pG5-luc reporter (Promega), a firefly luciferase gene under control of a multimerized Gal4 promoter sequence. Promoter reporter constructs were generated by cloning the promoter regions of ANF, α-skeletal actin, IL-2 (with multiple NFAT binding sites) and myoglobin genes upstream of a promoter-less firefly luciferase open reading frame (pGL3 plasmid, Promega, Inc.). Similarly, three consensus MEF-2 binding sites or a single TATA element were cloned into pGL3. HDAC5-GFP construct was a gift from E. Olson, UT Southwestern Medical Center, Dallas Tex.
Cells culture and transient transfections. All muscle cell lines were obtained from the American Type Culture Collection (ATCC). Cells were cultured under conditions recommended by ATCC. Transient transfections were carried out in 96-well plates (5000 cells/well) using the Fugene transfection reagent (Roche), as per manufacturer's instructions. […] Forty-eight hours post-transfection, cells were processed for luciferase measurements.
Adenoviral constructs. Recombinant adenovirus α-skeletal actin-luc, and 3×MEF2-luc were constructed using the Adeasy vector system (Qbiogene) according to manufacturers instructions. Recombinant adenovirus HDAC5 and HDAC5-S259/498A were provided by E. Olson. Recombinant adenovirus MCIPexon4 was provided by S. Williams. Recombinant adenovirus β-galactosidase was from Qbiogene. Cells were plated in 96-well plates, and 24 hr after plating, were infected with recombinant adenovirus at moi of 50 in serum free media for three hrs. Forty-eight hrs after infection, the cells were lysed and luciferase levels were measured as above.
Luciferase measurement. Transiently transfected or adenovirus transfected cells were processed for luciferase activity using the Luc-Lite assay kit (Packard), as per manufacturer's instructions. Briefly, cells were washed in serum- and phenol red-free medium, then lysed in the presence of luciferase substrate to produce a long half-life “glow” luminescence. Relative light intensity was quantitated on a Fusion Universal Microplate Analyzer (Packard).

[2] = tested on: alpha skeletal actin promoter; assay: alpha skeletal actin promoter-luciferase reporter in H9C2 cells
Procedure: Cells culture and transient transfections. […] Cells were cultured under conditions recommended by ATCC. Transient transfections were carried out in 96-well plates (5000 cells/well) using the Fugene transfection reagent (Roche), as per manufacturer's instructions. […] Forty-eight hours post-transfection, cells were processed for luciferase measurements.
Adenoviral constructs. Recombinant adenovirus α-skeletal actin-luc, and 3×MEF2-luc were constructed using the Adeasy vector system (Qbiogene) according to manufacturers instructions. […] Recombinant adenovirus β-galactosidase was from Qbiogene. Cells were plated in 96-well plates, and 24 hr after plating, were infected with recombinant adenovirus at moi of 50 in serum free media for three hrs. Forty-eight hrs after infection, the cells were lysed and luciferase levels were measured as above.

[3] = drug added at transfection or expression construct, 48 h
[4] = recombinant adenovirus infection, moi of 50

CC(C)NCC(O)c1ccc(O)c(O)c1 (centres unmarked) [isoproterenol]
hypertrophic promoter activity [1]: relatively unaffected

HDAC: anti-hypertrophic gene product HDAC5, MEF-2 inhibitor, expressed by transfection or adenovirus
expression of MEF-2 reporter (MEF-2 reporter; [3]): significantly reduced
expression of alpha skeletal actin reporter [2, 3]: significantly reduced

HDAC5-S259/498A: mutant of HDAC5 where serine residues 259 and 498 are replaced by alanine; super-repressor of the MEF-2 pathway
repression of the 3×MEF2 promoter (MEF-2 reporter; [4]): most effective repressor
repression of the alpha-skeletal-actin promoter [2, 4]: most effective repressor

CNC[C@H](O)c1cccc(O)c1 [phenylephrine]
MEF-2 reporter expression (MEF-2 reporter): unaffected

CC[C@H](C)[C@H](NC(=O)[C@H](CC(=O)O)NC(=O)[C@H](CC(C)C)NC(=O)[C@H](Cc1c[nH]cn1)NC(=O)[C@@H]1CSSC[C@H](N)C(=O)N[C@@H](CO)C(=O)N[C@H]2CSSC[C@H](NC(=O)[C@H](CCC(=O)O)NC(=O)[C@H](CCCCN)NC(=O)[C@H](CC(=O)O)NC(=O)[C@H](CCSC)NC(=O)[C@H](CC(C)C)NC(=O)[C@H](CO)NC(=O)[C@H](CO)NC2=O)C(=O)N[C@@H](C(C)C)C(=O)N[C@@H](Cc2ccc(O)cc2)C(=O)N[C@@H](Cc2ccccc2)C(=O)N1)C(=O)N[C@H](C(=O)N[C@@H](Cc1c[nH]c2ccccc12)C(=O)O)[C@@H](C)CC [endothelin]
MEF-2 reporter expression (MEF-2 reporter): unaffected

NC[C@H](O)c1ccc(O)c(O)c1 [norepinephrine]
hypertrophic promoter activity [1]: relatively unaffected
